# Paper PMC12118337, “Development of a Peptide Inhibitor Targeting the C‐SH2 Domain of the SHP2 Phosphatase” (Chembiochem, 2025)
# Residues, ends and D or L forms follow the SMILES beside them. *: point of attachment. 5FAM = O=C1OC2(c3ccc(O)cc3Oc3cc(O)ccc32)c2ccc(C(=O)*)cc21; X1 = O=C(O)C(C(=O)O)*
# Test system: CSK SH2 domain
# Test: FP binding assay, CSK SH2 domain
# Conditions: 100 nM peptide, three independent experiments
# Experimental: buffer and stored in 5 mL binding buffer at 4°C. His-tagged 3C protease (0.5 mg; EMBL) was added to the pooled eluted fractions and dialysed using Spectra Por Dialysis Tubing (MWCO 6-8 kDa, 23 mm; Spectrum Labs) in 1 L of binding buffer at 4°C for 3 hours, then overnight in fresh buffer. A new column was prepared by loading 2 mL Ni-NTA Agarose (Invitrogen) as a 50% slurry in EtOH. The column was washed with 10 mL H2O to remove the EtOH and equilibrated with 10 mL binding buffer. The protein/3C protease mixture was loaded onto the column and incubated for 1 hour at 4°C on a rocker. […] Protein purification was monitored by SDS-PAGE using NuPAGE 4-12% Bis-Tris Protein Gels (Invitrogen) run in MOPS buffer (50 mM MOPS, 50 mM Tris-HCl pH 7.7, 1 mM EDTA, 0.1% SDS) followed by Coomassie staining using Coomassie Brilliant Blue (Roth). […]
# 4. Fluorescence polarization
# Fluorescence polarization (FP) was used to measure the binding of FAM-labelled peptides to the SHP2 C-SH2, SHP2 N-SH2, SHP2 PTP, CSK SH2 or Src SH2 domains. […]
# concentration of 100 nM in a final volume of 200 µL. […] The FP was immediately measured on a Synergy H1 Microplate Reader (BioTek) with the excitation and emission monitored at 485 nm and 528 nm, respectively, over 30 minutes. FP values were automatically calculated by the Gen5 3.03 (BioTek) software associated with the microplate reader. […]
structure (smiles),measurement,value
CC[C@H](C)[C@H](NC(=O)[C@@H](NC(=O)[C@H](C)NC(=O)[C@H](Cc1ccc(OC(C(=O)O)C(=O)O)cc1)NC(=O)[C@H](CCC(=O)O)NC(=O)[C@@H](NC(=O)[C@H](CCC(N)=O)NC(=O)c1ccc2c(c1)C(=O)OC21c2ccc(O)cc2Oc2cc(O)ccc21)[C@@H](C)O)[C@@H](C)O)C(=O)N[C@@H](CCCCN)C(=O)N[C@@H](Cc1c[nH]cn1)C(=O)N1CCC[C@H]1C(N)=O [peptide 26] (5FAM-QTEY(X1)ATIKHP-NH2),binding to CSK SH2 domain compared to SHP2 C‐SH2 domain,at least two orders of magnitude weaker
